# Patent US9840503B2, “Heterocyclic compounds and uses thereof” (Incyte Corporation, priority 2015, dated 2017)
# Experiments:
# Format in all cases: biochemical
# c-MER = c-MER (Homo sapiens (Human), UniProt Q12866); experiment: TAM Enzymatic Assay (HTRF), c-MER; details: 4.1 nM c-MER, 100 uM ATP, 60 min room temperature
# Protocol: (§1) The assay buffer contained 50 mM HEPES, pH7.5, 10 mM MgCl2, 1 mM EGTA, 0.01% NP-40 and 2 mM DTT. 0.5 ul test compounds dissolved in DMSO were transferred from compound plates to white 384-well assay plates (Greiner […] plates). […] A 1 mM stock solution of peptide substrate Biotin-[…]-amide (Quality Controlled Biochemicals, MA) dissolved in DMSO was diluted to 1 uM in assay buffer containing 100 uM ATP (for AXL and c-MER assays) or 20 uM ATP (for TYRO3 assay). 10 ul enzyme solution (or assay buffer for the enzyme blank) was added to the appropriate wells in each plate, and then 10 ul/well substrate solution was added to initiate the reaction. The plate was protected from light and incubated at room temperature for 60 min. […] The plate was incubated for 1 h at room temperature, and HTRF (homogenous time resolved fluorescence) signal was measured on a PHERAstar FS plate reader (BMG labtech). Percentage of inhibition was calculated for each concentration and IC50 value was generated from curve fitting with GraphPad Prism software.
# TYRO3 = TYRO3 (Homo sapiens (Human), UniProt Q06418); experiment: TAM Enzymatic Assay (HTRF), TYRO3; details: 0.366 nM TYRO3, 20 uM ATP, 60 min room temperature
# TYRO3, sequence (Q06418 41-890): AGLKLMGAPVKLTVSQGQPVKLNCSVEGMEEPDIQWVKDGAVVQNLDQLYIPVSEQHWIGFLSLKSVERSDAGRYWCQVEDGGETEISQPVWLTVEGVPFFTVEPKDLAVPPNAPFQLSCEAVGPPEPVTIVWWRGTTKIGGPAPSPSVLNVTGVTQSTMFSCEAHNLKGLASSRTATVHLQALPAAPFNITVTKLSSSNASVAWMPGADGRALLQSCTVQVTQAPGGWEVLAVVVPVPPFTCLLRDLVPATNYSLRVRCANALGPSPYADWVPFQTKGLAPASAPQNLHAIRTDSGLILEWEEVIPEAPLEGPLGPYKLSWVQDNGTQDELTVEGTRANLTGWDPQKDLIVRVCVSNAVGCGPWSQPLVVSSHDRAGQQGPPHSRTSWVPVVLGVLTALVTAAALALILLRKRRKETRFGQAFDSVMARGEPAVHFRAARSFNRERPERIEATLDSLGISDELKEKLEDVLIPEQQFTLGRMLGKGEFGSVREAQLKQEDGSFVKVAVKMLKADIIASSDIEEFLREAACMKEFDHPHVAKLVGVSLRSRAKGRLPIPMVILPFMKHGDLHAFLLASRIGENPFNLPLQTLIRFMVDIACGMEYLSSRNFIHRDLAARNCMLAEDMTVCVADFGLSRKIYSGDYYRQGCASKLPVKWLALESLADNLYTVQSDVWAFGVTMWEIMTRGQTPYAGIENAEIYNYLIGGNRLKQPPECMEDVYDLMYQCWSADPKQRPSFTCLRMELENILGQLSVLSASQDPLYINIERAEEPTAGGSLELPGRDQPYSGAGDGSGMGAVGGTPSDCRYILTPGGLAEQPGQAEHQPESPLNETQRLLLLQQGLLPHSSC
# Protocol: as §1
# AXL = AXL (Homo sapiens (Human), UniProt P30530); experiment: TAM Enzymatic Assay (HTRF), AXL; details: 13.8 nM AXL, 100 uM ATP, 60 min room temperature
# AXL, sequence (P30530 26-894): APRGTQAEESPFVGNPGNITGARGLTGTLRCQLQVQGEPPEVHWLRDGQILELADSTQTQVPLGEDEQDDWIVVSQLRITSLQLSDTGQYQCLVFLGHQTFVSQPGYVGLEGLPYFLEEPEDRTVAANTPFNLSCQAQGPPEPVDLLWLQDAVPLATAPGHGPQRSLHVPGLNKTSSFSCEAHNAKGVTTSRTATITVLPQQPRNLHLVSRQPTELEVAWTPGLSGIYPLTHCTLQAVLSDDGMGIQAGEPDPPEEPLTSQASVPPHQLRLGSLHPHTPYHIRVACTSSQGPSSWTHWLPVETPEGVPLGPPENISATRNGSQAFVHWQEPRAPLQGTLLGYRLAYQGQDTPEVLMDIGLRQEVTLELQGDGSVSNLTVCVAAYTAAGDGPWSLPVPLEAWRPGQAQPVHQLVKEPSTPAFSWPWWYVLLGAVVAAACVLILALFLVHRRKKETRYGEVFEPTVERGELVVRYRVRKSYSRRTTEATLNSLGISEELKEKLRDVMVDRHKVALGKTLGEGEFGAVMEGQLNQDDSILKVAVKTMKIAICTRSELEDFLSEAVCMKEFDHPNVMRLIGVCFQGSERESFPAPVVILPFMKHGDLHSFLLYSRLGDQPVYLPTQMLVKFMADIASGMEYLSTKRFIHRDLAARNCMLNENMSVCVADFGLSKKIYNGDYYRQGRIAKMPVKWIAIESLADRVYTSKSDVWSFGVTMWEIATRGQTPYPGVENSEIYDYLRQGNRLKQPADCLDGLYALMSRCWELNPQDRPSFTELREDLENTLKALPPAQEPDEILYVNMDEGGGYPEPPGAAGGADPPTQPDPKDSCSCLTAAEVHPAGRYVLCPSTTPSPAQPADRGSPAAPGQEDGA
# Protocol: as §1
# c-MER, sequence (Q12866 21-999): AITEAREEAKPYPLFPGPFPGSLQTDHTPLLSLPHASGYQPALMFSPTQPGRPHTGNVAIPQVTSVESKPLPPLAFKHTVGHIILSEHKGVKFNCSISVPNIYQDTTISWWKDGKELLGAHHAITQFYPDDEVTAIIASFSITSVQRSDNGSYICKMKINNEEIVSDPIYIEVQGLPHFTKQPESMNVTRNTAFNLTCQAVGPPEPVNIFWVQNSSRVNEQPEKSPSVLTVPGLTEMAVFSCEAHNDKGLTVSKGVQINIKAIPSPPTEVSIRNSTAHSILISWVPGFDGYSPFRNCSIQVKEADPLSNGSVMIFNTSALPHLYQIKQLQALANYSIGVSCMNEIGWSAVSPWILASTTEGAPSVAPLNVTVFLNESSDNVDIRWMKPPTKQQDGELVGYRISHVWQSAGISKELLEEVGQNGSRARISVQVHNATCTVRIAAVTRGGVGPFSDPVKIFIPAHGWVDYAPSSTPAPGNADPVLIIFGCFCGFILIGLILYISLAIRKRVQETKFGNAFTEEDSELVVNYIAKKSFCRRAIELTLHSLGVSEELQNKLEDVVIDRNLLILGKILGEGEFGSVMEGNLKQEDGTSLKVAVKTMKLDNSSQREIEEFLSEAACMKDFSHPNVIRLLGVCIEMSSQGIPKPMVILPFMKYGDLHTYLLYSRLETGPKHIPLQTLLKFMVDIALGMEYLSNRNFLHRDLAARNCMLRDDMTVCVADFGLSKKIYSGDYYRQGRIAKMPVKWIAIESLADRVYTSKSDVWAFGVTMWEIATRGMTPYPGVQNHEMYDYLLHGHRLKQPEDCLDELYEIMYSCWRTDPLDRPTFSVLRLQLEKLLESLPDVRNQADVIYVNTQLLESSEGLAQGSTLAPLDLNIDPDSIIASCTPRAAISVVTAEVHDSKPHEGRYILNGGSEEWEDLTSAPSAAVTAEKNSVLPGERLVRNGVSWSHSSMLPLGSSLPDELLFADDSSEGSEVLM
IC50 (c-MER) [nM],IC50 (TYRO3) [nM],IC50 (AXL) [nM],SMILES
< 100,< 100,–,"CCCCNc1ncc2c3ccc(CNC4CCCCC4)cc3c(=O)n([C@H]3CC[C@H](O)CC3)c2n1 [Example 2, 3-(Butylamino)-8-[(cyclohexylamino)methyl]-5-(trans-4-hydroxycyclohexyl)pyrimido[4,5-c]isoquinolin-6(5H)-one]"
< 100,< 100,< 100,"CCCCNc1ncc2c(n1)N([C@H]1CC[C@H](O)CC1)Cc1cc(CNC3CCCCC3)ccc1-2 [Example 3, trans-4-[3-(Butylamino)-8-[(cyclohexylamino)methyl]pyrimido[4,5-c]isoquinolin-5(6H)-yl]cyclohexanol]"
< 100,< 100,–,"CCCCNc1ncc2c(n1)N([C@H]1CC[C@H](N)CC1)Cc1cc(CNC3CCCC3)ccc1-2 [Example 11, 5-(trans-4-aminocyclohexyl)-N-butyl-8-((cyclopentylamino)methyl)-5,6-dihydropyrimido[4,5-c]isoquinolin-3-amine]"
–,–,> 1000,"CCCCNc1ncc2c(n1)N([C@H]1CC[C@H](O)CC1)Cc1cc(CN3CCOCC3)ccc1-2 [Example 1, trans-4-[3-(Butylamino)-8-(morpholin-4-ylmethyl)pyrimido[4,5-c]isoquinolin-5(6H)-yl]cyclohexanol]"
–,–,> 1000,"CCCCNc1ncc2c3ccc(-c4cnn(C)c4)cc3c(=O)n([C@H]3CC[C@H](O)CC3)c2n1 [Example 7, 3-(Butylamino)-5-(trans-4-hydroxycyclohexyl)-8-(1-methyl-1H-pyrazol-4-yl)pyrimido[4,5-c]isoquinolin-6(5H)-one]"
< 100,100 to 1000,> 1000,"CCCCNc1ncc2c3ccc(CNC4CCOCC4)cc3c(=O)n([C@H]3CC[C@H](O)CC3)c2n1 [Example 4, 3-(Butylamino)-5-(trans-4-hydroxycyclohexyl)-8-[(tetrahydro-2H-pyran-4-ylamino)methyl]pyrimido[4,5-c]isoquinolin-6(5H)-one]"
> 1000,> 1000,> 1000,"CCCCNc1ncc2c3ccc(-c4c(F)cccc4F)cc3c(=O)n([C@H]3CC[C@H](O)CC3)c2n1 [Example 8, 3-(Butylamino)-8-(2,6-difluorophenyl)-5-(trans-4-hydroxycyclohexyl)pyrimido[4,5-c]isoquinolin-6(5H)-one]"
–,–,> 1000,"CCCCNc1ncc2c3ccc(CNCCO)cc3c(=O)n([C@H]3CC[C@H](O)CC3)c2n1 [Example 5, 3-(Butylamino)-5-(trans-4-hydroxycyclohexyl)-8-{[(2-hydroxyethyl)amino]methyl}pyrimido [4,5-c]isoquinolin-6(5H)-one]"
< 100,< 100,< 100,"CCCCNc1ncc2c(n1)N([C@H]1CC[C@H](N)CC1)Cc1cc(CNC3CCCCC3)ccc1-2 [Example 9, 5-(trans-4-Aminocyclohexyl)-N-butyl-8-[(cyclohexylamino)methyl]-5,6-dihydropyrimido [4,5-c]isoquinolin-3-amine]"
< 100,< 100,–,"CCCCNc1ncc2c3ccc(CNC4CCCCC4)cc3c(=O)n([C@H]3CC[C@H](N)CC3)c2n1 [Example 6, 5-(trans-4-aminocyclohexyl)-3-(butylamino)-8-((cyclohexylamino)methyl)pyrimido[4,5-c]isoquinolin-6(5H)-one]"
< 100,< 100,–,"CCCCNc1ncc2c(n1)N([C@H]1CC[C@H](N)CC1)Cc1cc(CNC3CCOCC3)ccc1-2 [Example 10, 5-(trans-4-Aminocyclohexyl)-N-butyl-8-{[(tetrahydropyran-4-yl)amino]methyl}-5,6-dihydropyrimido[4,5-c]isoquinolin-3-amine]"
